Reference: publication PMC5846083 (Journal of Medicinal Chemistry, 2018)

How the values were obtained:
Na,K-ATPase α4 = Na,K-ATPase α4 (Rattus norvegicus, UniProt Q64541); experiment: Inhibition of Na,K-ATPase α4 activity; format: biochemical; settings: for reduced activity compared to ouabain: Na,K-ATPase α4 inhibition; for loss of Na,K-ATPase α4 inhibitory activity versus comparator: 29 versus 32, 19 versus 25; for IC50 for Na,K-ATPase α4 inhibition (Figure 1): recombinant rat α4, mean of two experiments in quadruplicate
rat sperm [1] = experiment: Rat sperm motility in vitro; format: cell-based; settings: for maximum reduction of sperm motility: even at high concentrations
hERG = hERG (Homo sapiens, UniProt Q12809); experiment: hERG competitive displacement fluorescence polarization assay
rat sperm [2] = experiment: Sperm hyperactivated motility under capacitating conditions; settings: 10^–8 M, 1 h, capacitating medium
rat sperm [3] = experiment: Sperm intracellular Ca2+, Calcium Green; format: cell-based; settings: 10^–8 M, 1 h
rat sperm [4] = experiment: Sperm intracellular pH, SNARF-1; format: cell-based; settings: 10^–8 M, 1 h
rat sperm [5] = experiment: Sperm membrane potential; format: cell-based; settings: 10^–8 M, 1 h
[6] = General toxicity in treated rats; format: in vivo, rat; settings: oral gavage, 5–20 mg/kg
human Na,K-ATPase α4 = settings: human isoforms; cited from earlier work

Sequence of hERG (Q12809 whole entry): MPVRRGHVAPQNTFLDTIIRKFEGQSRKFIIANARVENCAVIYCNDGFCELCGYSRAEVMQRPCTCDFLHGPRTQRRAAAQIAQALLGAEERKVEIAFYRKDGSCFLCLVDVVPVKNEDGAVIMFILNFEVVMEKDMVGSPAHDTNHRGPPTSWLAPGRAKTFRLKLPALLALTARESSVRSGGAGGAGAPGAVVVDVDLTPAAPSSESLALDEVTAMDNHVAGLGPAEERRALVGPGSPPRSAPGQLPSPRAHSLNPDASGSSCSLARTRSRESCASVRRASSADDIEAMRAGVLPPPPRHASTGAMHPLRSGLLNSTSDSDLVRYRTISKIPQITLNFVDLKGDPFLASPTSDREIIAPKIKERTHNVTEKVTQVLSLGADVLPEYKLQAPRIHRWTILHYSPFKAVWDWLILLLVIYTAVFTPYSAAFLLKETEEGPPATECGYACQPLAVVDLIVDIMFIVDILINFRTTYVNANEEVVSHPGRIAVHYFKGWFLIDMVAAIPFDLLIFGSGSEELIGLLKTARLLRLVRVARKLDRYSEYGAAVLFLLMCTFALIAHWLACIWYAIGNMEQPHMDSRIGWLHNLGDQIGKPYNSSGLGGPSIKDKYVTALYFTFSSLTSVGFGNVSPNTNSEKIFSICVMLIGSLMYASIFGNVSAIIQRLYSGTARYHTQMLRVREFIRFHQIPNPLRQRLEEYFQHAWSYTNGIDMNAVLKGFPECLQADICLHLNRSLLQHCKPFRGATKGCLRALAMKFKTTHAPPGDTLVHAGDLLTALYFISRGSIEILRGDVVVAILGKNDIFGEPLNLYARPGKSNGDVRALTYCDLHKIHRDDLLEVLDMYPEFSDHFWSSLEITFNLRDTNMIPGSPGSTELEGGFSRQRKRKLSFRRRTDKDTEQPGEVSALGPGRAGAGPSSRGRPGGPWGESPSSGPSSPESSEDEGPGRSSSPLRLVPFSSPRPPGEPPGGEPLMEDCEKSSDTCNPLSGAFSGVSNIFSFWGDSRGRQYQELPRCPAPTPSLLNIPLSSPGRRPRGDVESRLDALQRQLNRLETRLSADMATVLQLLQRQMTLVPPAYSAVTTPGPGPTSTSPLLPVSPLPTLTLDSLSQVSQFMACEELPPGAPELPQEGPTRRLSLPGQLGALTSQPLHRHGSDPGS
Sequence of Na,K-ATPase α4 (Q64541 whole entry, other chains not shown): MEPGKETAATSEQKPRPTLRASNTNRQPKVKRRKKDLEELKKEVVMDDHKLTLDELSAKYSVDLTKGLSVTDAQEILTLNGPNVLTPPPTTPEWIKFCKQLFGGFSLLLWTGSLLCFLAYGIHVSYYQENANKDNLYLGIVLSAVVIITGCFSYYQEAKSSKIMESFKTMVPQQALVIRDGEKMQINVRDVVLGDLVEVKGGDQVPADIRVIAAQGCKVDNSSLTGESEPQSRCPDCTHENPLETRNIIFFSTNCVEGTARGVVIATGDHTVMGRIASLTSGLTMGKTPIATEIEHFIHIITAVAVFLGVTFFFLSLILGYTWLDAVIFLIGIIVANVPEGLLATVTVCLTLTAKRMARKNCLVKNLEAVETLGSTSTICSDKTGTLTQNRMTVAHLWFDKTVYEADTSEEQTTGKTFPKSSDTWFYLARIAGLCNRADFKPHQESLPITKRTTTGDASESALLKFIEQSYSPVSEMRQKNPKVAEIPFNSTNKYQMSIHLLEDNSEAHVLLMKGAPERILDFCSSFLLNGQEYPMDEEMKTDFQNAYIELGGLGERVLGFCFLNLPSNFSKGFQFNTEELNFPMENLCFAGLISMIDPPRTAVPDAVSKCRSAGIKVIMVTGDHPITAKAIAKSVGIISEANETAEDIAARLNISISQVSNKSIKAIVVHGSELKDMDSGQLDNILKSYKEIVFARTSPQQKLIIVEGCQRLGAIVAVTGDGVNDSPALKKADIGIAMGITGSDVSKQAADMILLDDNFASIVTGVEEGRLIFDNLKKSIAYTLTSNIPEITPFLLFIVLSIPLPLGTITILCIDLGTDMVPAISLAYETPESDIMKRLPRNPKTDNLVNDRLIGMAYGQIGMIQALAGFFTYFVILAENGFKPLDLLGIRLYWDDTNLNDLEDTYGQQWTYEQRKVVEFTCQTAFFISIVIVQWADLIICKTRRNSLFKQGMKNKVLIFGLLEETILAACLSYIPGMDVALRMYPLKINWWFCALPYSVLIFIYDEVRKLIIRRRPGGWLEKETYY

C[C@]12C[C@@H](O)[C@H]3[C@@H](CC[C@]4(O)C[C@@H](O)C[C@@H](O)[C@]34CO)[C@@]1(O)CCC2c1cn(Cc2ccc(F)cc2)nn1 (mixture of isomers) [Compound 27, (1R,3S,5S,8R,9S,10R,11R,13R,14S,17S)-17-(1-(4-Fluorobenzyl)-1H-1,2,3-triazol-4-yl)-10-(hydroxymethyl)-13-methyltetradecahydro-5H-cyclopenta[a]phenanthrene-1,3,5,11,14(2H)-pentaol]
IC50 (Na,K-ATPase α4): 0.03 µM

COCO[C@@H]1[C@H]2OC(C)(C)O[C@H]2[C@H](O[C@H]2C[C@H]3OC(C)(C)OC[C@]34[C@@H]3[C@@H](CC[C@]4(O)C2)[C@@]2(O)CC[C@H](CO)[C@@]2(C)C[C@H]3OCOC)O[C@H]1C [Compound 10, (3S,3aR,5R,5aS,5bR,9aR,11S,12aS,14aR,14bS)-3-(Hydroxymethyl)-5-(methoxymethoxy)-11-(((3aR,4R,6S,7S,7aR)-7-(methoxymethoxy)-2,2,6-trimethyltetrahydro-4H-[1,3]dioxolo[4,5-c]pyran-4-yl)oxy)-3a,8,8-trimethyltetradecahydro-6H-cyclopenta[7,8]phenanthro[4,4a-d][1,3]dioxine-12a,14b-diol]
effect on other parameters of sperm movement (progressive motility, velocities, linearity, beat cross frequency) (rat sperm [1]; 1 h incubation): directly block all parameters of sperm movement
maximum reduction of sperm motility (rat sperm [1]): 50–60%
IC50 (hERG): > 60 µM

COCO[C@@H]1[C@H]2OC(C)(C)O[C@H]2[C@H](O[C@H]2C[C@H]3OC(C)(C)OC[C@]34[C@@H]3[C@@H](CC[C@]4(O)C2)[C@@]2(O)CC[C@H](C#N)[C@@]2(C)C[C@H]3OCOC)O[C@H]1C [Compound 11, (3S,3aR,5R,5aS,5bR,9aR,11S,12aS,14aR,14bS)-12a,14b-Dihydroxy-5-(methoxymethoxy)-11-(((3aR,4R,6S,7S,7aR)-7-(methoxymethoxy)-2,2,6-trimethyltetrahydro-4H-[1,3]dioxolo[4,5-c]pyran-4-yl)oxy)-3a,8,8-trimethylhexadecahydro-6H-cyclopenta[7,8]phenanthro[4,4a-d][1,3]dioxine-3-carbonitrile]
reduced activity compared to ouabain (Na,K-ATPase α4): about 10 fold

COCO[C@H]1C[C@H]2OC(C)(C)OC[C@]23[C@@H]2[C@@H](CC[C@]3(O)C1)[C@@]1(OCOC)CC[C@H](CO)[C@@]1(C)C[C@H]2OCOC [Compound 17, (3S,3aR,5R,5aS,5bR,9aR,11S,12aS,14aR,14bS)-3-(Hydroxymethyl)-5,11,14b-tris(methoxymethoxy)-3a,8,8-trimethyltetradecahydro-6H-cyclopenta[7,8]phenanthro[4,4a-d][1,3]dioxin-12a(1H)-ol]
effect on other parameters of sperm movement (progressive motility, velocities, linearity, beat cross frequency) (rat sperm [1]; 1 h incubation): directly block all parameters of sperm movement
maximum reduction of sperm motility (rat sperm [1]): 50–60%
IC50 (hERG): > 60 µM

COc1ccc(-c2cn(C[C@H]3CC[C@]4(O)[C@@H]5CC[C@]6(O)C[C@@H](O)C[C@@H](O)[C@]6(CO)[C@H]5[C@H](O)C[C@]34C)nn2)cc1 [Compound 19, (1R,3S,5S,8R,9S,10R,11R,13R,14S,17S)-10-(Hydroxymethyl)-17-((4-(4-methoxyphenyl)-1H-1,2,3-triazol-1-yl)methyl)-13-methyltetradecahydro-5H-cyclopenta[a]phenanthrene-1,3,5,11,14(2H)-pentaol]
loss of Na,K-ATPase α4 inhibitory activity versus comparator (Na,K-ATPase α4): 7 orders of magnitude

C[C@]12C[C@@H](O)[C@H]3[C@@H](CC[C@]4(O)C[C@@H](O)C[C@@H](O)[C@]34CO)[C@@]1(O)CC[C@@H]2c1cn(Cc2ccccc2)nn1 [Compound 25, (1R,3S,5S,8R,9S,10R,11R,13R,14S,17S)-17-(1-Benzyl-1H-1,2,3-triazol-4-yl)-10-(hydroxymethyl)-13-methyltetradecahydro-5H-cyclopenta[a]phenanthrene-1,3,5,11,14(2H)-pentaol]
decrease of total sperm motility (rat sperm [1]; 10^–8 M and higher, 1 h incubation): approximately 60%
effect on other parameters of sperm movement (progressive motility, velocities, linearity, beat cross frequency) (rat sperm [1]; 1 h incubation): directly block all parameters of sperm movement
maximum reduction of sperm motility (rat sperm [1]): 50–60%
reduction of hyperactivation accompanying sperm capacitation (rat sperm [2]): approximately 70%
increase of [Ca2+]i in sperm (rat sperm [3]): approximately 40%
effect on sperm intracellular pH (rat sperm [4]): caused intracellular sperm acidification
increase of sperm Vm (plasma membrane depolarization) (rat sperm [5]): approximately 40%
IC50 (hERG): > 60 µM
toxic effect on treated rats [6]: did not exert any major toxic effect

COCO[C@H]1C[C@H]2OC(C)(C)OC[C@]23[C@@H]2[C@@H](CC[C@]3(O)C1)[C@@]1(OCOC)CC[C@H](C#N)[C@@]1(C)C[C@H]2OCOC [Compound 29, (3S,3aR,5R,5aS,5bR,9aR,11S,12aS,14aR,14bS)-12a-Hydroxy-5,11,14b-tris(methoxymethoxy)-3a,8,8-trimethylhexadecahydro-6H-cyclopenta[7,8]phenanthro[4,4a-d][1,3]dioxine-3-carbonitrile]
loss of Na,K-ATPase α4 inhibitory activity versus comparator (Na,K-ATPase α4): 3 orders of magnitude

COCO[C@H]1C[C@H]2OC(C)(C)OC[C@]23[C@@H]2[C@@H](CC[C@]3(O)C1)[C@@]1(OCOC)CC[C@H](C(=O)O)[C@@]1(C)C[C@H]2OCOC [Compound 32, (3S,3aR,5R,5aS,5bR,9aR,11S,12aS,14aR,14bS)-12a-Hydroxy-5,11,14b-tris(methoxymethoxy)-3a,8,8-trimethylhexadecahydro-6H-cyclopenta[7,8]phenanthro[4,4a-d][1,3]dioxine-3-carboxylic Acid]
reduced activity compared to ouabain (Na,K-ATPase α4): about 10 fold

CO[C@H]1C[C@H](O[C@H]2CC[C@]3(C=O)[C@H]4CC[C@]5(C)[C@@H](C6=CC(=O)OC6)CC[C@]5(O)[C@@H]4CC[C@]3(O)C2)O[C@H](C)[C@H]1O [cymarin, reference compound]
IC50 for Na,K-ATPase α4 inhibition (Figure 1) (Na,K-ATPase α4): 10^–8 to 10^–9 M

C[C@@H]1O[C@@H](O[C@H]2C[C@@H](O)[C@]3(CO)[C@H]4[C@H](O)C[C@]5(C)[C@@H](C6=CC(=O)OC6)CC[C@]5(O)[C@@H]4CC[C@]3(O)C2)[C@H](O)[C@H](O)[C@H]1O [ouabain]
sensitivity to ouabain, human Na,K-ATPase α4 versus α1 (human Na,K-ATPase α4): ~100 fold

C[C@]12CC[C@H]3[C@@H](CC[C@]4(O)C[C@@H](O)CC[C@]34C=O)[C@@]1(O)CC[C@@H]2C1=CC(=O)OC1 [strophanthidin, reference compound]
IC50 for Na,K-ATPase α4 inhibition (Figure 1) (Na,K-ATPase α4): 10^–8 to 10^–9 M
